Assay results reported in paper PMC3293351, “Pharmacokinetics and Excretion Studies on CDRI-85/92, an Antiulcer Proton Pump Inhibitor” (Scientia Pharmaceutica, 2011).
Read-outs that look alike come from different tables or passages of the source.

Key:
[1] = design: method as in PMID 17045703; settings: cited from earlier work
[2] = test system: glutathione-S-transferases; design: method as in PMID 15283303; settings: formation of trans-isoform; cited from earlier work
[3] = Pharmacokinetics in serum after 20 mg/kg oral and intravenous doses; assay type: in vivo, Sprague Dawley rats
Experimental: As the first step of experiment, an aqueous solution formulation of the compound was administered intravenously to conscious rats via the caudal vein at a dose of 20 mg/kg in a volume of approximately 1.0 ml/kg/rat. Before the experiment, the tail was cleaned with luke warm water and the caudal vein was dilated using xylene. Blood (approx. 1.2 ml) was collected by cardiac puncture under light ether anesthesia at 0.08, 0.25, 0.5, 1, 2, 3, 4, 5, 6, 8, 12, 24 and 48 h post dose. In the second study, conscious rats, fasted overnight, were fed orally at a dose of 20 mg/kg in a volume of 2.0 ml/kg/rat. After drug delivery, blood was collected at the same time points used in the intravenous study. Three rats were utilized for each time point and not more than three or four (later in case of 48 hr) blood samples from each rat, two of which were by intracardiac during the absorption-distribution phase (till 5 hr) and one from the venecava in the terminal phase (6 hr onwards), was withdrawn. Together in two sets of studies, there were 24 rats. (Pl refer to Sampling schedule: Table 1). The total volume of the blood withdrawn within 24 h from cardiac puncture was less than 10% of the total blood volume. Blood was allowed to clot in sealed glass tubes and centrifuged at 2000 rpm. The serum was separated and stored at −60°C until analyses.
Serum concentrations of the compound were determined by HPLC method as described by Srivastava & Gupta (2002) with minor modification. Briefly, to 0.5 ml serum (blank, spiked or test) in 10 ml test tube 1.5 ml of acetonitrile was added and vortex-mixed for 15 sec. The tubes were kept in fridge for 30 min for complete protein precipitation, vortex-mixed for 1 min and centrifuged at 1000 × g for 10 min at 4°C. Supernatant (1.5 ml) was transferred to a 10 ml conical tube without disturbing the lower precipitate pellet and evaporated to dryness in Savant speed vac concentrator. The residue was reconstituted in 0.1 ml of mobile phase, centrifuged at 1000 × g for 10 min and the resulting solution was injected onto the HPLC system.
After oral dose, serum peak concentration (Cmax) and the time to reach peak concentration (Tmax) were derived directly from the original data. The serum concentration-time data from intravenous and oral dosed rats were fitted to WinNonlin programme (version 1.5) to calculate various pharmacokinetic parameters (like AUC, Cl and Vd). The bioavailability for oral dose was calculated using the following equation:
%Bioavailability=AUCoral×Doseiv/AUCiv×Doseoral×100

[4] = method not specified; cited from earlier work
[5] = Partition coefficient (log P), 1-octanol/phosphate buffer; assay type: physicochemical; settings: 1-octanol/20 mM phosphate buffer; octanol partition, 20 mM phosphate buffer pH 7.4, 25°C
Experimental: Determination of log P was carried out according to the method of Said et al. (1996). 1-Octanol and 20 mM phosphate buffer (pH, 7.4) were mutually saturated for 6 h on magnetic stirrer and separated. A solution of the compound (1 mg/ml) was prepared in […]. Buffer (2 ml) and octanol containing CDRI-85/92 were placed in seven glass tubes and screw capped. These tubes were tumble-mixed for 2 h at 25°C at about 100 inversions/min. The organic and aqueous phases were separated by centrifugation at 2500 rev/min for 20 min. The concentration of the compound in aqueous and organic phase was determined by HPLC after a suitable dilution in mobile phase. The log P was calculated from the following equation:
Log P=logCoctanol/Cbuffer

gastric proton pump = settings: cited from earlier work
Aqueous solubility = assay type: physicochemical
[6] = design: method as in PMID 12711165; settings: alike at acidic and basic pHs; cited from earlier work
[7] = test system: proton pumps of the kidney and bone; design: method as in PMID 17045703; settings: cited from earlier work
[8] = Sprague Dawley, serum, rat, 20 mg/kg IV
[9] = Sprague Dawley, rat serum, 20 mg/kg oral

O=C1NC(C(=O)O)/C(=C\Cc2ccccc2)O1 (stereo not shown) [CDRI-85/92, (5E)-2-oxo-5-(2-phenylethylidene)-1,3-oxazolidine-4-carboxylic acid]
cytoprotective activity [1]: good cytoprotective activity
Metabolism by glutathione-S-transferases [2]: very slow metabolism
Cmax ([3]; Sprague Dawley, rat, serum, iv, 20 mg/kg, rat serum, 20 mg/kg IV, read-out: Cmax): 4910 ng/mL
half-life ([3]; Sprague Dawley, rat, serum, iv, 20 mg/kg, rat serum, 20 mg/kg IV, read-out: Elimination t1/2 (converted)): 2 h
Cmax ([3]; Sprague Dawley, rat, serum, po, 20 mg/kg, rat serum, 20 mg/kg oral, read-out: Cmax): 469 ± 45.5 ng/mL
MRT [3, 8]: 1.1 h
Vd [3, 8]: 3.7 L/kg
clearance [3, 8]: 18.3 mL/min
MRT ([3]; Sprague Dawley, serum, rat, 20 mg/kg oral): 3.9 h
bioavailability ([3]; Sprague Dawley, serum, rat, 20 mg/kg oral vs IV, based on AUC): 70.5%
AUC(0-inf) ([3]; Sprague Dawley, rat serum, 20 mg/kg IV): 1250 ng·h/mL
AUC(0-inf) [3, 9]: 882 ng·h/mL
Tmax [3, 9]: 1 h
Elimination t1/2 ([3]; rat serum, 20 mg/kg IV, 20 mg/kg): 2.1 h
Cmax ([3]; rat serum, 20 mg/kg oral, 20 mg/kg): 469.2 ng/mL
Time up to which detected in serum ([3]; rat, 20 mg/kg IV): up to 12 h
MAT (mean absorption time) ([3]; rat, 20 mg/kg oral, MRToral - MRTIV): 2.8 h
Earliest time detectable in serum ([3]; rat, post oral administration 20 mg/kg): 5 min
log P [4]: 0.5
logP [5]: 0.53 ± 0.11
Inhibition of the gastric proton pump (gastric proton pump): selective and competitive inhibition
Solubility in formulation (Aqueous solubility; 10 and 20 mg/ml in triple distilled water): completely soluble
Solubility in water (Aqueous solubility; water): freely soluble in water
Ka (absorption rate constant) [6]: 0.12 h⁻¹
Inhibition of proton pumps of the kidney and bone [7]: not inhibiting
